Measurements taken from patent US20120184517A1, “TREATMENT OF DISEASES WITH ALTERED SMOOTH MUSCLE CONTRACTILITY” (priority 2009, published 2012).
“Also recorded” adds a separate entry of the source.

What was measured:
[1] = target: T1, BKCa channel (mSlo) (Mus musculus, UniProt Q08460); test: Whole cell patch clamp of HEK293 cells stably transfected with mSlo; type: cell-based, murine
T1 construct: expressed in transfected cells
Procedure: FIGS. 4A and 4B show representative current traces from whole cell patches with 5 mM EGTA in patch pipette. […] Voltage steps are shown at the right of each tracing; note the different maximum voltage steps +200 mV (upper) vs. +120 mV (lower). […] FIG. 4C G-V curves were constructed for indicated conditions utilizing tail analysis (Xia, et al., Multiple regulatory sites in large-conductance calcium-activated potassium channels. Nature, 2002. 418(6900):880-4). Solid lines were fitted with Boltzmann function. […] FIGS. 4D and 4E show experiments studying stable mslo HEK293 cells in whole cell configuration with a pipette solution containing 5 mM EGTA (˜0 free Ca^2+).
Current in the diary plot in FIG. 5B represents maximal current in ramp protocol at +70 mV. Holding potential of ramp was −20 mV, with ramp from −30 mV to +180 mV over 500 ms. The G-V curve in FIG. 5C was generated from the tail analysis as described in FIG. 4.
Current was monitored with a ramp protocol; holding potential −60 mV, with ramp from −80 mV to +150 mV over 500 ms. […] Analysis was performed using tail analysis with normalization as previously described (Xia, et al., Multiple regulatory sites in large-conductance calcium-activated potassium channels. Nature, 2002. 418(6900):880-4). […] Identification of the BKCa channel was determined by conductance and inhibition by iberiotoxin and TEA. […] Murine femoral arterial rings were isolated and placed in a wire myograph. […] The figures shown are representative of 4 similar experiments. Error bars are standard error of the mean (SEM). Asterisk (*) indicates p<0.001.

[2] = test system: OVA-challenged animals; conditions: in vivo; cited from earlier work
[3] = test system: Jurkat T cells and purified human CD4+ T cells; conditions: cited from earlier work
[4] = test system: CD4+ and CD8+ human T lymphocyte; conditions: dose-dependent; cited from earlier work
[5] = test system: OVA-sensitized mice; test: OVA induced acute asthma model, repeated i.p. rottlerin
Procedure: In this example, the acute asthma model in ovalbumin (OVA) treated mice was used (Jia, Y., R. Foronjy, and J. D'Armiento, Altered airway inflammatory response to cigarette smoke in ovalbumin-sensitized mice. Am J. Resp and Critical Care Medicine (2006) p. Suppl:A339.). […] Mice received an intraperitoneal injection (i.p) of 100 μg ovalbumin adsorbed to 2 mg aluminum (200 μl final volume) on day 0 and again on day 7. Control mice were injected with endotoxin free PBS. On alternative days 14-22, mice received a 20 minute aerosol challenge of either endotoxin-free PBS (controls) or 2% (w/v) OVA in endotoxin-PBS, using a lumiscope 6610 ultrasonic nebulizer (Lumiscope, East Rutherford, N.J.).
Two days after the last aerosol challenge, AHR was measured by invasive restrained whole body plethysmography (rWBP) (BUXCO Electronics Inc., Troy, N.Y.) in response to inhaled methacholine (Sigma, St. Louis, Mo.). For dynamic lung resistance, measurements were performed using the PLY3011 chamber (BUXCO). Mice were anesthetized with a cocktail of 25 mg per kg body weight ketamine hydrochloride (Bioniche Pharma, Lake Forest, Ill.) and 2.5 mg per kg body weight xylazine (Llyod Laboratories, Inc., Barangay Tikay, Malolos Bulacan, Philippines), tracheotomized, and immediately intubated with an 18-gauge catheter, followed by mechanical ventilation (Columbus Instruments International, Columbus, Ohio). Respiratory frequency was set at 150 breaths/minute with a tidal volume of 0.2 ml. Increasing concentrations of methacholine (0-50 mg/ml) were administered at the rate of 20 puffs per 10 seconds, with each puff of aerosol delivery lasting 10 ms, via a nebulizer aerosol system with a 4-6 μm aerosol particle size generated by a nebulizer head (Aeroneb®, Aerogen Ltd., Dangan, Galway, Ireland). The nebulizer is attached to a small aerosol block, which is placed in the inspiratory flow line. In this way the aerosol is injected directly into the airway. Baseline resistance was restored before administration of the subsequent doses of methacholine. The flow and pressure signals were measured and processed together to determine resistance and compliance using a software analyzer provided in BioSystem XA software (BUXCO Electronics Inc., Troy, N.Y.).
After measurement of airway responsiveness in vivo, mice were sacrificed and their serum collected and stored at −80° C. until analysis. Serum levels of OVA-specific IgE were measured by sandwich ELISA as described previously (Kanamaru, F., et al. “Costimulation via Glucocorticoid-Induced TNF Receptor in Both Conventional and CD25^+ Regulatory CD4^+ T Cells.” J Immunol., Vol. 172, pages 7306-7314 (2004)).
Bronchoalveolar lavage (BAL) was performed by injection of 1 ml saline (37° C.) through a tracheal cannula into the lung. Cells in the BAL were centrifuged and resuspended in cold PBS. For differential BAL cell counts, cytospin preparations were made and per cytospin, 200 cells were counted and differentiated by standard morphology and staining characteristics.
IL-4, IL-5 and IL-13 ELISAs were performed according to the manufacturer's instructions (R & D systems, Minneapolis, Minn.). The detection limits of the ELISAs were 60 pg/ml for IL-4, 32 pg/ml for IL-5, 15 pg/ml IL-13.
In this system mice are anesthetized and ventilated and through a cannula in the trachea, tracheal pressure and flow are continuously monitored and traditional pulmonary mechanics can be measured. This system is preferable over the method of oscillatory mechanics due to the consistency of measurements and the ability to directly measure pressure and flow. Changes in pressure, flow, and volume were recorded, and RL was calculated from peak values after each challenge (FIG. 14A).
After determining the airway hyperresponsiveness, lungs were lavaged with PBS and total cell count with differential was determined on the bronchoalveolar cells (BAL).

T1 sequence (Q08460 whole entry): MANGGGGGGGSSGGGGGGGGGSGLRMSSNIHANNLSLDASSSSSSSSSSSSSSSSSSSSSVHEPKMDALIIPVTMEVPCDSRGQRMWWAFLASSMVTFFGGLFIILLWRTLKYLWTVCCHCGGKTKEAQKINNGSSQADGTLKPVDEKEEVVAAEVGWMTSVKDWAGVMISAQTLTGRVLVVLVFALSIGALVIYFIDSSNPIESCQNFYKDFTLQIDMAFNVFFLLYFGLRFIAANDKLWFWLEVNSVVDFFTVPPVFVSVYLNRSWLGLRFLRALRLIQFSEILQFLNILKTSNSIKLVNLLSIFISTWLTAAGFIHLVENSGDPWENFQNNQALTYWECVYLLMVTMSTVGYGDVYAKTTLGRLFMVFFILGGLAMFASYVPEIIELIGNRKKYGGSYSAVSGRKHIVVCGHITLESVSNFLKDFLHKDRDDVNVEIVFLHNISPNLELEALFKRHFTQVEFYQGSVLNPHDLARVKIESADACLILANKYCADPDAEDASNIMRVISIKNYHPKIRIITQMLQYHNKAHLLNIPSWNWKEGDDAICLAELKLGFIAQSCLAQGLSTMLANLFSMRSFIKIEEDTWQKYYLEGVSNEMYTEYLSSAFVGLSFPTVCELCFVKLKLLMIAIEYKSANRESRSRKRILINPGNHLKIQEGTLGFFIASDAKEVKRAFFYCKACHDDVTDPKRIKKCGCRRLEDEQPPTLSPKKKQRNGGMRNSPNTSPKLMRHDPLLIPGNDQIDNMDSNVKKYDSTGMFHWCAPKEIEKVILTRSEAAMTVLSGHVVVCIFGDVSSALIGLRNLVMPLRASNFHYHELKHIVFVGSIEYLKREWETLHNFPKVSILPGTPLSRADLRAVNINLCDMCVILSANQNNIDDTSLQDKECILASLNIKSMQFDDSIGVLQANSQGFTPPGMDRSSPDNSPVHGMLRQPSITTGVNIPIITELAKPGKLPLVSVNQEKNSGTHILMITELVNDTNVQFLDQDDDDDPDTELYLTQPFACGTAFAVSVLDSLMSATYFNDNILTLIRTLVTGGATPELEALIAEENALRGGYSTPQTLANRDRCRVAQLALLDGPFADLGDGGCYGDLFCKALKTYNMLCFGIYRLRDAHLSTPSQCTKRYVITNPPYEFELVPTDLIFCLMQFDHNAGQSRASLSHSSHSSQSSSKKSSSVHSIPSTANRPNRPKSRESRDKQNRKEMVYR

In the case of `CC(=O)c1c(O)c(C)c(O)c(Cc2c(O)c3c(c(C(=O)/C=C/c4ccccc4)c2O)OC(C)(C)C=C3)c1O` [rottlerin, 5,7-dihydroxy-2,2-dimethyl-6-(2,4,6-trihydroxy-3-methyl-5-acetylbenzyl)-8-cinnamoyl-I,2-chromene], the “tail currents (deactivation)” value ([1]; after exposure to rottlerin) is reported as “markedly prolonged”, the “concentration at which channel activity was dramatically increased” value ([1]; extracellular, non-Ca2+ dependent, reversible) is reported as less than 100 nM and the “current after NS-1619 administration” value ([1]; rottlerin 0.5 μM added after NS-1619, 0 Ca2+) is reported as “incrementally increased current”. For the same molecule, the “effect of intracellular dialysis on channel activity” value ([1]; up to 20 μM in patch pipette, 25 minutes) was “only a relatively small effect; also recorded: minimal effect”, the “histamine in BAL fluid” value [2] was “inhibits an increase of histamine” and the “PMA-induced phosphorylation of Erk-1 and Erk-2” value [3] was “blocked”. For the same molecule, the T lymphocyte proliferation [4] was “inhibits”, the “serum OVA specific IgE” value ([5]; OVA+rottlerin versus OVA, 48 hours after last challenge) was “similar” and the “Th2 cytokines IL-4, IL-5 and IL-13 in BALF” value ([5]; OVA-sensitized animals) was “significantly reduced”. For the same molecule, the “number of inflammatory leukocytes in BAL” value ([5]; OVA-sensitized mice) was “significant decrease”, the “number of macrophages and eosinophils in BAL” value ([5]; OVA-sensitized mice) was “marked reduction” and the airway constriction ([5]; OVA-sensitized mice, 25 mg/ml methacholine challenge, rottlerin 5 mg per kg i.p.) was “decrease in airway constriction”. The “airway resistance (RL)” value ([5]; OVA-sensitized mice, MCh 25-50 mg/ml, rottlerin 5 mg per kg i.p.) was “decrease in their airway resistance”, the “airway constriction with isoproterenol” value ([5]; OVA-sensitized mice, isoproterenol i.p. 20, 40 and 100 μg after 50 mg/ml methacholine) was “significant decrease in airway constriction” and the “cellular infiltrate in the peribronchial and perivascular regions” value ([5]; OVA-sensitized/challenged animals, H & E stain) was “significant reduction”. For the same molecule, the airway resistance ([5]; PBS-sensitized animals) was “no effect” and the “adverse effect, morbidity, mortality” value ([5]; rottlerin 5 mg per kg i.p., repeated) was “no significant adverse effect”.
